Laboratory results published in PMC4979471 (Cell Death Discovery, 2015).
Read-outs that look alike come from different tables or passages of the source.

Key:
Assay in all cases: Kinase selectivity, P33-radiolabeled assay
Format in all cases: biochemical
Conditions in all cases: 10 μM ATP
[1] = biological target: T1, KDR/VEGFR2 (Homo sapiens, UniProt P35968)
T1 construct: purchased Reaction Biology Corp
Summary of the method: (§1)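 Percent residual kinase activity versus DMSO is reported. Conditions: compound at 10 μM, ATP at 10 μM, n = 2.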

[2] = biological target: T2, PAK3 (Homo sapiens, UniProt O75914)
T2 construct: purchased Reaction Biology Corp
Summary of the method: as §1

[3] = biological target: T3, LIMK1 (Homo sapiens, UniProt P53667)
T3 construct: purchased Reaction Biology Corp
Summary of the method: as §1

[4] = biological target: T4, TLK1 (Homo sapiens, UniProt Q9UKI8)
T4 construct: purchased Reaction Biology Corp
T4 sequence (Q9UKI8 1-766): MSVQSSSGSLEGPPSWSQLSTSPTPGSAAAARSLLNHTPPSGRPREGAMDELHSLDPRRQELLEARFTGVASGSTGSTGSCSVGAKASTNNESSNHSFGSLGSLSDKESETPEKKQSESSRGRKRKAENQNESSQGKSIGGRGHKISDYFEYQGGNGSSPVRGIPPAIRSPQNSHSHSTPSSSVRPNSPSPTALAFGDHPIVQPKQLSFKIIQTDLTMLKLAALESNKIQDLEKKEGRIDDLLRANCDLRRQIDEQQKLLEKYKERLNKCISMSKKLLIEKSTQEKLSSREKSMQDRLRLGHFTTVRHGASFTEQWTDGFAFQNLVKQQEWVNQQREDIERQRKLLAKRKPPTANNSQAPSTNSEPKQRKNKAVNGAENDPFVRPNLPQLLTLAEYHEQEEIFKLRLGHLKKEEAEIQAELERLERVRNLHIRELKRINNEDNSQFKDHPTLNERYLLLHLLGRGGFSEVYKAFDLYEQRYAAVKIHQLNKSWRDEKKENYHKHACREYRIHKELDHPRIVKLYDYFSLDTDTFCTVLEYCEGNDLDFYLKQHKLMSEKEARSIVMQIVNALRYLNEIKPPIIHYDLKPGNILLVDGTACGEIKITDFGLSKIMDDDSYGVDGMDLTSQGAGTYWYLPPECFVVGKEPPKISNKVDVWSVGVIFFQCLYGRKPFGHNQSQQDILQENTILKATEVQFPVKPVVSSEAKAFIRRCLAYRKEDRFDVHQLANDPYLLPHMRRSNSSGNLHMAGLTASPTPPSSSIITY
Summary of the method: as §1

[5] = biological target: T5, YES/YES1 (Homo sapiens, UniProt P07947)
T5 construct: purchased Reaction Biology Corp
Summary of the method: as §1

[6] = biological target: T6, CDK1/cyclin E (Homo sapiens, UniProt P06493)
T6 construct: purchased Reaction Biology Corp
Summary of the method: as §1

[7] = biological target: T7, BRAF (Homo sapiens, UniProt P15056)
T7 construct: purchased Reaction Biology Corp
Summary of the method: as §1

[8] = biological target: T8, GRK2 (Homo sapiens, UniProt P25098)
T8 construct: purchased Reaction Biology Corp
T8 sequence (P25098 1-689): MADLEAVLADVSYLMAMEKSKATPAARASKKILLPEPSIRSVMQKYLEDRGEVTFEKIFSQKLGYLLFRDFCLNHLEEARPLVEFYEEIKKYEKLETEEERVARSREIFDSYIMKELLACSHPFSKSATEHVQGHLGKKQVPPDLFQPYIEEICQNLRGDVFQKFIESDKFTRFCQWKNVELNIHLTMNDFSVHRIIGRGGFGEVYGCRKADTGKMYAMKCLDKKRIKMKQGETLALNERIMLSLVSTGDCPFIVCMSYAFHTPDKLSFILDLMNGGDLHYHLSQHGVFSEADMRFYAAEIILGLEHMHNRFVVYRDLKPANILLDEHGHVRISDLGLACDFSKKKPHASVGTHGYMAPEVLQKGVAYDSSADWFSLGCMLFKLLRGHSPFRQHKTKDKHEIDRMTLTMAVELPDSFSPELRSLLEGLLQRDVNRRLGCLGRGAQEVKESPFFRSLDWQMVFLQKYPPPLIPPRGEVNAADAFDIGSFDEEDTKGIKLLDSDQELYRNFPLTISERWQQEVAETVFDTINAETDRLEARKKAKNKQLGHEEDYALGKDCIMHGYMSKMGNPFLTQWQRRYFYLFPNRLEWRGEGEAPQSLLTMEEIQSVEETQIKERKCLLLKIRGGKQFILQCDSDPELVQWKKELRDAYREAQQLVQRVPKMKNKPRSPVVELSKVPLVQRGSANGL
Summary of the method: as §1

[9] = read-out: % Enzyme Activity (relative to DMSO controls) AVG
[10] = read-out: % Enzyme Activity (relative to DMSO controls) Data 1
[11] = read-out: % Enzyme Activity (relative to DMSO controls) Data 2

T1 sequence (P35968 20-1356): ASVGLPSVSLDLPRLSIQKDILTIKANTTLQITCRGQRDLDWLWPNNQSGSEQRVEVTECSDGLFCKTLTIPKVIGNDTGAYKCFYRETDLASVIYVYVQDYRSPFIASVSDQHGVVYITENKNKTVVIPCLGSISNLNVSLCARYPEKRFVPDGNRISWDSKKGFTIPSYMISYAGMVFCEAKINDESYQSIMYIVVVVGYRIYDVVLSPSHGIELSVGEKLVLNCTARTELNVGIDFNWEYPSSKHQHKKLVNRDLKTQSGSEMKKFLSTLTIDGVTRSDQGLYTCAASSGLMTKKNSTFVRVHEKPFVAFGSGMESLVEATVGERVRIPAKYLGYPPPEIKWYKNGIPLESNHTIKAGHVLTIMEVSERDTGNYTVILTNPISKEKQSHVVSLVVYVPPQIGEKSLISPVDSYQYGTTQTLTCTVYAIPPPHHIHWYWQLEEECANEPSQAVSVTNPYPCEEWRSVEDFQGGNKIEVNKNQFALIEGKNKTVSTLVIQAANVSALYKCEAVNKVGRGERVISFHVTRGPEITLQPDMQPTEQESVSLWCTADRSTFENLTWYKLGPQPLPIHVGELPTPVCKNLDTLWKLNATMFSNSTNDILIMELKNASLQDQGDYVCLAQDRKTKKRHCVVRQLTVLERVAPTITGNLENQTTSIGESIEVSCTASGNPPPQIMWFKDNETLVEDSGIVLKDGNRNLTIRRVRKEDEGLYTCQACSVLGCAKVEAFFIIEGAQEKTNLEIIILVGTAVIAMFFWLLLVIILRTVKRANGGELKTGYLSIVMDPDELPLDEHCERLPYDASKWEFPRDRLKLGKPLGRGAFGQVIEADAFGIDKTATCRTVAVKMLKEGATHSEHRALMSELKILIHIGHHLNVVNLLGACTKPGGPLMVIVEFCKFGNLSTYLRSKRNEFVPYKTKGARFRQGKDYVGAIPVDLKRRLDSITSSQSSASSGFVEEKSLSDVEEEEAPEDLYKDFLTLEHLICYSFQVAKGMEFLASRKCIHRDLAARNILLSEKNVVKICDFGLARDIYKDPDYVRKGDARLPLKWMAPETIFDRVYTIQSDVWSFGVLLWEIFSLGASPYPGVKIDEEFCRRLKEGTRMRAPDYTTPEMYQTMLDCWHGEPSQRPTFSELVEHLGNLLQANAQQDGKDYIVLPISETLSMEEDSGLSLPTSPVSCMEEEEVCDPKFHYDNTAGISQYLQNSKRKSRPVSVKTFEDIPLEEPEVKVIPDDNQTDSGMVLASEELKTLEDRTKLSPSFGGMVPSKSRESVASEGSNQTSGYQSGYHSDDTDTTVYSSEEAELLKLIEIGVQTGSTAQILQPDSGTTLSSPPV
T5 sequence (P07947 whole entry): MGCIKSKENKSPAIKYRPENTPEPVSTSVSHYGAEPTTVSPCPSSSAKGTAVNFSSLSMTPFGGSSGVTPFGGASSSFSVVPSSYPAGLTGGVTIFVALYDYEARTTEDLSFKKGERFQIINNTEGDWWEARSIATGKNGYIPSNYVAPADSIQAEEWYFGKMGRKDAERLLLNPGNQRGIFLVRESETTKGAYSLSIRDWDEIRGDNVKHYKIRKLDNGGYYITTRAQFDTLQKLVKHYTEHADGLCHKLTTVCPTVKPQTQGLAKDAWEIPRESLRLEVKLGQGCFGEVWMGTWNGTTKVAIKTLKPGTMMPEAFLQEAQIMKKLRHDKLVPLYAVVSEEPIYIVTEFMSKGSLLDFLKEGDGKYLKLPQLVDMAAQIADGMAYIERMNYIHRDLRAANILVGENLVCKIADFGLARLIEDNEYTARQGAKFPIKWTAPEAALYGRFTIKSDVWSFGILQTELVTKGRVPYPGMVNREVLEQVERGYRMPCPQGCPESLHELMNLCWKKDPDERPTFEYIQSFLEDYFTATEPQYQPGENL
T7 sequence (P15056 whole entry): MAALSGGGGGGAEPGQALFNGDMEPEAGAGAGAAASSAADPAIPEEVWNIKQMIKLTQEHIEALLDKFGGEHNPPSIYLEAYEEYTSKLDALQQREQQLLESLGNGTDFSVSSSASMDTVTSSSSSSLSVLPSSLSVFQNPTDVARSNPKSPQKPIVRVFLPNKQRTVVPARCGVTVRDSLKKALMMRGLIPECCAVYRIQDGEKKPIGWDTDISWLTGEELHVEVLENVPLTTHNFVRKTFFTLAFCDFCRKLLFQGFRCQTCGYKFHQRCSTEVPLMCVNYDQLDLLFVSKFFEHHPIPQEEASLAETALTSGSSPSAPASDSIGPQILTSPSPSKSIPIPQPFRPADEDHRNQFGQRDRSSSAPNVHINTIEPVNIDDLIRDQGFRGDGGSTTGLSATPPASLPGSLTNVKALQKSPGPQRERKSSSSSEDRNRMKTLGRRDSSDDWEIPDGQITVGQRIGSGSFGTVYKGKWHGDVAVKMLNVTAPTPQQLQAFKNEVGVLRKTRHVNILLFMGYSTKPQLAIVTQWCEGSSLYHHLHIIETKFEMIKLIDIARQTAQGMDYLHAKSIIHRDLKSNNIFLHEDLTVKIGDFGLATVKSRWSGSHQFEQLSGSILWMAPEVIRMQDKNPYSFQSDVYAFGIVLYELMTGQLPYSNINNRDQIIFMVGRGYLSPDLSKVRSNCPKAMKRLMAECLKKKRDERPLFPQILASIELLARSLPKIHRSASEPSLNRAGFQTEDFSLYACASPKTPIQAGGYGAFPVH
T6 sequence (P06493 whole entry): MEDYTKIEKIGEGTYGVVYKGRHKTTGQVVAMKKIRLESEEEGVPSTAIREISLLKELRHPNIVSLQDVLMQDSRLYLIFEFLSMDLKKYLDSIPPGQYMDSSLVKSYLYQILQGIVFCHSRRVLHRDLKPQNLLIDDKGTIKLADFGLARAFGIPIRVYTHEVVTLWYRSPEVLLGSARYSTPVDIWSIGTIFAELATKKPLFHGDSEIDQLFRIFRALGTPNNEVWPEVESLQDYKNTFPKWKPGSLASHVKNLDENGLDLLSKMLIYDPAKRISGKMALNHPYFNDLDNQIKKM
T6 sequence (P24864 whole entry partner): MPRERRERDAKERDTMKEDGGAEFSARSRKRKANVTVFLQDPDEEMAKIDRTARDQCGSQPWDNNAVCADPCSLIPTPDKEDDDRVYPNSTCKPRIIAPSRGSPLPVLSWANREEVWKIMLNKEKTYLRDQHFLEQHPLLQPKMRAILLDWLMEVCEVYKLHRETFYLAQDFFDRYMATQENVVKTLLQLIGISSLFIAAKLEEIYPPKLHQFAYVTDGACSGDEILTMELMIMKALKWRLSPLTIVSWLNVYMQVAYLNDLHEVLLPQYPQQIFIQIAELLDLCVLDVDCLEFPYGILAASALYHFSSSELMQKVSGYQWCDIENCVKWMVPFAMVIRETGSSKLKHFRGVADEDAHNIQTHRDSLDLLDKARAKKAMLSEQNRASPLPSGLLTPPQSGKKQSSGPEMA
T2 sequence (O75914 whole entry): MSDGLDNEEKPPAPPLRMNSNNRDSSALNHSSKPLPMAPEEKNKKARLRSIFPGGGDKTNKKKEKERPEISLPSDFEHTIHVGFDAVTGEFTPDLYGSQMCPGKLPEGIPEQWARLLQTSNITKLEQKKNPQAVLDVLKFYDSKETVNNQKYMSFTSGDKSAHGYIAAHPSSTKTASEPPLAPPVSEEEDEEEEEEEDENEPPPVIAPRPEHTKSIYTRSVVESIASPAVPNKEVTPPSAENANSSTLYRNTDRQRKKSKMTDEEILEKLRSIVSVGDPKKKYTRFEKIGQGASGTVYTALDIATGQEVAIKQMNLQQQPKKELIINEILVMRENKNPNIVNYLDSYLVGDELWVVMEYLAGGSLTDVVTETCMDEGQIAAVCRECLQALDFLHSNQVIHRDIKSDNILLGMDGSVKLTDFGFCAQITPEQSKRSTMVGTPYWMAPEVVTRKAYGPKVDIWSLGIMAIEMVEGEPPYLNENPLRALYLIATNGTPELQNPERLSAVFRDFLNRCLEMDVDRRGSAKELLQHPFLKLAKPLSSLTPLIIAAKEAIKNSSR
T3 sequence (P53667 whole entry): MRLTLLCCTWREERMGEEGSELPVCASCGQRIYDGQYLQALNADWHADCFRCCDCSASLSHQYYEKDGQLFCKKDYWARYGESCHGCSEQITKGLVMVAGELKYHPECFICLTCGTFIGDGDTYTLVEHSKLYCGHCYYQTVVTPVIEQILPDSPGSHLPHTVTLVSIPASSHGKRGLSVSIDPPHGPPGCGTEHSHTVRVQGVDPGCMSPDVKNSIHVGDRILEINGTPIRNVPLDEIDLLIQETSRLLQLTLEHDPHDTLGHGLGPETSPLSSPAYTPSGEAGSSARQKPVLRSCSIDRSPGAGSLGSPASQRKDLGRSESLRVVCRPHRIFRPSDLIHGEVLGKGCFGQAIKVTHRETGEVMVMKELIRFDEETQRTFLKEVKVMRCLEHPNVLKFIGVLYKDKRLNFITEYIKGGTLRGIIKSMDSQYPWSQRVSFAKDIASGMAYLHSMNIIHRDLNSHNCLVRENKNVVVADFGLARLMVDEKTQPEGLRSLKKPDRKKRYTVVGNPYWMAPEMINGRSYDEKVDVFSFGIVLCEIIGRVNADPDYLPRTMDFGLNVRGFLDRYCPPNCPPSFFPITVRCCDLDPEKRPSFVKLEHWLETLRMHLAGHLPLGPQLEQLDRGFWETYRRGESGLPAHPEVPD

For `CC(C)(C)C(=O)N1N=CC[C@H]1c1ccccc1` [GSK′963], which remaining activity at 10 µM [1, 9] is on record?
The remaining activity at 10 µM was 97.1%.

And the remaining activity at 10 µM [1, 10]?
The remaining activity at 10 µM was 96.8%.

What about the remaining activity at 10 µM [1, 11] of the same compound?
The remaining activity at 10 µM was 97.5%.

What about the remaining activity at 10 µM [2, 9] of the same compound?
The remaining activity at 10 µM was 103%.

And the remaining activity at 10 µM [2, 10]?
Its remaining activity at 10 µM is 102%.

And the remaining activity at 10 µM [2, 11]?
Its remaining activity at 10 µM is 105%.

And the remaining activity at 10 µM [3, 9]?
The remaining activity at 10 µM was 113%.

And the remaining activity at 10 µM [3, 10]?
Its remaining activity at 10 µM is 112%.

What about the remaining activity at 10 µM [3, 11] of the same compound?
Its remaining activity at 10 µM is 114%.

And the remaining activity at 10 µM [4, 9]?
The remaining activity at 10 µM was 97.5%.

What about the remaining activity at 10 µM [4, 10] of the same compound?
Its remaining activity at 10 µM is 101%.

And the remaining activity at 10 µM [4, 11]?
Its remaining activity at 10 µM is 93.9%.

What about the remaining activity at 10 µM [5, 9] of the same compound?
The remaining activity at 10 µM was 88.2%.

What about the remaining activity at 10 µM [5, 10] of the same compound?
Its remaining activity at 10 µM is 88.7%.

And the remaining activity at 10 µM [5, 11]?
Its remaining activity at 10 µM is 87.8%.

What about the remaining activity at 10 µM [6, 9] of the same compound?
Its remaining activity at 10 µM is 98.2%.

What about the remaining activity at 10 µM [6, 10] of the same compound?
The remaining activity at 10 µM was 102%.

What about the remaining activity at 10 µM [6, 11] of the same compound?
The remaining activity at 10 µM was 94.7%.

And the remaining activity at 10 µM [7, 9]?
Its remaining activity at 10 µM is 89.4%.

What about the remaining activity at 10 µM [7, 10] of the same compound?
Its remaining activity at 10 µM is 89.4%.

What about the remaining activity at 10 µM [7, 11] of the same compound?
Its remaining activity at 10 µM is 89.4%.

What about the remaining activity at 10 µM [8, 9] of the same compound?
Its remaining activity at 10 µM is 95.7%.

What about the remaining activity at 10 µM [8, 10] of the same compound?
The remaining activity at 10 µM was 99.5%.

And the remaining activity at 10 µM [8, 11]?
Its remaining activity at 10 µM is 91.8%.
